Measured values from ChEMBL document CHEMBL1909046, “DrugMatrix in vitro pharmacology data”.

Experiments:
[1] = biological target: 5-hydroxytryptamine receptor 2B (Homo sapiens, UniProt P41595); type: cell membranes, CHO-K1, Membrane; conditions: for Ki: read-out: Ki; as to all read-outs here: in other assays of this panel Not Active means under 50% inhibition at 10 µM
Mu-type opioid receptor = Mu-type opioid receptor (Homo sapiens, UniProt P35372); test: DRUGMATRIX: Opiate mu (OP3, MOP) radioligand binding (ligand: [3H] Diprenorphine); type: cell membranes, CHO-K1, Membrane; conditions: Not Active = under 50% inhibition at 10 µM
Acetylcholinesterase = Acetylcholinesterase (Homo sapiens, UniProt P22303); test: DRUGMATRIX: Acetylcholinesterase enzyme inhibition (substrate: acetylthiocholine); type: cell-based, HEK293; conditions: hek293; Not Active = under 50% inhibition at 10 µM
Carbonic anhydrase 2 = Carbonic anhydrase 2 (Homo sapiens, UniProt P00918); test: DRUGMATRIX: Carbonic Anhydrase II enzyme inhibition (substrate: 4-Nitrophenyl acetate (4-NPA)); type: tissue-based, Erythrocyte; conditions: erythrocyte; Not Active = under 50% inhibition at 10 µM
[2] = biological target: T1, Angiotensin-converting enzyme (Oryctolagus cuniculus, UniProt P12822); test: biochemical; type: tissue-based, Lung;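 also: enzymatic inhibition of angiotensin-converting enzyme measured with FAPGG as the substrate; in other assays of this panel Not Active means under 50% inhibition at 10 µM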
T1 sequence (P12822 whole entry): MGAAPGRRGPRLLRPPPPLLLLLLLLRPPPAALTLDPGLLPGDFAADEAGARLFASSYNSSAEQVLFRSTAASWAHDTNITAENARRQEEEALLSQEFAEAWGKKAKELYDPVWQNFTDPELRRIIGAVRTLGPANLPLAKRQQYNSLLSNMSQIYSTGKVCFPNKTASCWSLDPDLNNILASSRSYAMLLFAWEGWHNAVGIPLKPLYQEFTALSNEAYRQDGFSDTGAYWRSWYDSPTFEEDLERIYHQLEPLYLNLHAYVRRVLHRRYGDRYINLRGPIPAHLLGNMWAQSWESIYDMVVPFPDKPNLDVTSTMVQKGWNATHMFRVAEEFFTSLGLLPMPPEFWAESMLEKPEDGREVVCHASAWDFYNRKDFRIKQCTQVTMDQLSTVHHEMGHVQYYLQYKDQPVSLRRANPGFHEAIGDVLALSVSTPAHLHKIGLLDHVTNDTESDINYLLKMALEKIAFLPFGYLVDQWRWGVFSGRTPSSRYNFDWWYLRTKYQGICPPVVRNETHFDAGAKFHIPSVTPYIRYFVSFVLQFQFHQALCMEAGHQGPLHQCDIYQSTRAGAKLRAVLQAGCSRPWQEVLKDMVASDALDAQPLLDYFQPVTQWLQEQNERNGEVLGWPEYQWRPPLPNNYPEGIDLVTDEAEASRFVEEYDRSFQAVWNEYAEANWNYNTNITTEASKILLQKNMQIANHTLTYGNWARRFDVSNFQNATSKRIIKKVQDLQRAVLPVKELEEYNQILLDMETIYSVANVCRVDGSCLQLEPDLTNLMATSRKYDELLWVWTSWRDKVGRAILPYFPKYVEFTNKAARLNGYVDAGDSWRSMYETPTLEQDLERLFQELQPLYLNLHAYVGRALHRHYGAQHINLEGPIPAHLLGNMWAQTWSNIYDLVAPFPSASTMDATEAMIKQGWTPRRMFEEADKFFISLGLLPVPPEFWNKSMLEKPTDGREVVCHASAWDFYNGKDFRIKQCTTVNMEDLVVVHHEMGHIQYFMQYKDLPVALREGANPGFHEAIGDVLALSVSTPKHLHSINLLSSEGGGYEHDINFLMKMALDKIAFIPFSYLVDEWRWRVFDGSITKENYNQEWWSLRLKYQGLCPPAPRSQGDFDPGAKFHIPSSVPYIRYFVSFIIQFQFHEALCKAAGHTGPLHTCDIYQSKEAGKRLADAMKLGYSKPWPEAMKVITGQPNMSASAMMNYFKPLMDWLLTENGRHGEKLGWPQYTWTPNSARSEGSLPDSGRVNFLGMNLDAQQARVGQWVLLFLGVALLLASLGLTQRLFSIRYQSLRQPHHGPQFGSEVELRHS

[3] = biological target: cGMP-specific 3',5'-cyclic phosphodiesterase (Homo sapiens, UniProt O76074); test: DRUGMATRIX: Phosphodiesterase PDE5 enzyme inhibition (substrate: [3H]cGMP + cGMP); type: tissue-based, Platelet; conditions: platelet; Not Active = under 50% inhibition at 10 µM

Sequence of Acetylcholinesterase (P22303 whole entry): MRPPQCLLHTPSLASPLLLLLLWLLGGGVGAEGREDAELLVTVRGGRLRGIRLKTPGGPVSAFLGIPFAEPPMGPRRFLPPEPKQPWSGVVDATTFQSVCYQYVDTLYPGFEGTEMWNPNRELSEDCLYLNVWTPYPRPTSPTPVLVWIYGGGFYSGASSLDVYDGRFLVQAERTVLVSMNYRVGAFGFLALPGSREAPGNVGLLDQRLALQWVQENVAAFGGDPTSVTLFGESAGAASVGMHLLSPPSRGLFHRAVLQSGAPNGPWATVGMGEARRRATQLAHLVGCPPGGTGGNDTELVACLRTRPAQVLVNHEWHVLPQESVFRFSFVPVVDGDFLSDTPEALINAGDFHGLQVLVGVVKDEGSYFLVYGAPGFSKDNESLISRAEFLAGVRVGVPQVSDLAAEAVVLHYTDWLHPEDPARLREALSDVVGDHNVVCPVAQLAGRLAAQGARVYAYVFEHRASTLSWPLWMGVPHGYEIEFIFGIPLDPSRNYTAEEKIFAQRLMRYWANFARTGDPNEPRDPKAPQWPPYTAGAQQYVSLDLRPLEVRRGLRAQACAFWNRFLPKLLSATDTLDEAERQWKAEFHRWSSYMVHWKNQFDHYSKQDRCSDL
Sequence of Mu-type opioid receptor (P35372 whole entry): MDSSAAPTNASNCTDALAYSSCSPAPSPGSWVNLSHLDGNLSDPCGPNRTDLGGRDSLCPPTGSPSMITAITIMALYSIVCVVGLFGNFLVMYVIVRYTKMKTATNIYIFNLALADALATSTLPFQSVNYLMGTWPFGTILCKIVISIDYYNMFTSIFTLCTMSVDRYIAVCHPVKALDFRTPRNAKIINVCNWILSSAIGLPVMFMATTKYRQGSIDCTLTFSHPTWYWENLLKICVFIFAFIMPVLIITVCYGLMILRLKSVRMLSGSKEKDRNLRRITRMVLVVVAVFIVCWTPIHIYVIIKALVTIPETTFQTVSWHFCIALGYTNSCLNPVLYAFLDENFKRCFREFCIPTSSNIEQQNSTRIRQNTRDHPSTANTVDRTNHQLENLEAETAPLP
Sequence of 5-hydroxytryptamine receptor 2B (P41595 whole entry): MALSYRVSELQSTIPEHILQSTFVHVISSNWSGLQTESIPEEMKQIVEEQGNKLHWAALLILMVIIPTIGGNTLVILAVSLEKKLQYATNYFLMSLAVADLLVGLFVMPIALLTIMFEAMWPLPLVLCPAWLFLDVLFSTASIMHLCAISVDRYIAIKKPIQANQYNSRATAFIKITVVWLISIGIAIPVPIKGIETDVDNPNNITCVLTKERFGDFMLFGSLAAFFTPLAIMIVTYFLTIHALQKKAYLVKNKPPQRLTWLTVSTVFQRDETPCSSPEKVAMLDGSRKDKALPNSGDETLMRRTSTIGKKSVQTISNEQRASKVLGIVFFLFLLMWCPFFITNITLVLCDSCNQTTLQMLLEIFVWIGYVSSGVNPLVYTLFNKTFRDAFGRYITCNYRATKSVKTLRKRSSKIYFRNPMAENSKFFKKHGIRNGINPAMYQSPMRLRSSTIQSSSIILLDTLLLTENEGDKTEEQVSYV

Structure (SMILES) | IC50 ([1]; cho-k1) | IC50 (Mu-type opioid receptor; cho-k1) | IC50 (Acetylcholinesterase) | IC50 (Carbonic anhydrase 2) | IC50 [2] | IC50 [3] | Ki (Mu-type opioid receptor) [nM] | IC50 (Mu-type opioid receptor; read-out: IC50) [nM] | IC50 ([1]; read-out: IC50) [nM] | Ki [1] [nM]
C[C@H](C(=O)O)c1ccc2oc(-c3ccc(F)cc3)nc2c1 [FLUNOXAPROFEN] | Not Active | Not Active | Not Active | Not Active | Not Active | Not Active | – | – | – | –
C[N+](C)(C)CCOC(N)=O.[Cl-] [CARBACHOL] | Not Active | Not Active | Not Active | Not Active | Not Active | Not Active | – | – | – | –
O=C(O)CCc1nc(-c2ccccc2)c(-c2ccccc2)o1 [OXAPROZIN] | Not Active | Not Active | Not Active | Not Active | Not Active | Not Active | – | – | – | –
CC(=O)[C@]1(O)Cc2c(O)c3c(c(O)c2[C@@H](O[C@H]2C[C@H](N)[C@H](O)[C@H](C)O2)C1)C(=O)c1ccccc1C3=O [IDARUBICIN] | Not Active | Not Active | Not Active | Not Active | Not Active | Not Active | – | – | – | –
O=C1CN(/N=C/c2ccc([N+](=O)[O-])o2)C(=O)N1 [NITROFURANTOIN] | Not Active | Not Active | Not Active | Not Active | Not Active | Not Active | – | – | – | –
c1ccc2sc(SSc3nc4ccccc4s3)nc2c1 [BENZOTHIAZYL DISULFIDE] | Not Active | – | Not Active | Not Active | Not Active | Not Active | 1260 | 3110 | – | –
CC12CCC(CC1)C(C)(C)O2 [EUCALYPTOL] | Not Active | Not Active | Not Active | Not Active | Not Active | Not Active | – | – | – | –
CC(=O)Nc1ccc2c(c1)Cc1ccccc1-2 [2-ACETYLAMINOFLUORENE] | – | Not Active | Not Active | Not Active | Not Active | Not Active | – | – | 3170 | 2020
COc1ccccc1OCCNCC(O)COc1cccc2[nH]c3ccccc3c12 (configuration not stated) [CARVEDILOL] | – | Not Active | Not Active | Not Active | Not Active | Not Active | – | – | 23 | 15
Nc1nc(N)c2nc(CNc3ccc(C(=O)N[C@@H](CCC(=O)O)C(=O)O)cc3)cnc2n1 [AMINOPTERIN] | Not Active | Not Active | Not Active | Not Active | Not Active | Not Active | – | – | – | –
CCN(CCO)CCCC(C)Nc1ccnc2cc(Cl)ccc12 (configuration not stated) [HYDROXYCHLOROQUINE] | Not Active | Not Active | Not Active | Not Active | Not Active | Not Active | – | – | – | –
CN(CCOc1ccc(C[C@H](Nc2ccccc2C(=O)c2ccccc2)C(=O)O)cc1)c1ccccn1 | Not Active | Not Active | Not Active | Not Active | Not Active | Not Active | – | – | – | –
CCN1CCN(c2cc3c(cc2F)c(=O)c(C(=O)O)cn3C2CC2)CC1 [ENROFLOXACIN] | Not Active | Not Active | Not Active | Not Active | Not Active | Not Active | – | – | – | –
C[C@H]1C[C@H]2[C@@H]3CCC4=CC(=O)C=C[C@]4(C)[C@@]3(F)[C@@H](O)C[C@]2(C)[C@@]1(O)C(=O)CO [BETAMETHASONE] | Not Active | Not Active | Not Active | Not Active | Not Active | Not Active | – | – | – | –
OC[C@H]1O[C@@H]2O[C@H]3[C@H](O)[C@@H](O)[C@@H](O[C@H]4[C@H](O)[C@@H](O)[C@@H](O[C@H]5[C@H](O)[C@@H](O)[C@@H](O[C@H]6[C@H](O)[C@@H](O)[C@@H](O[C@H]7[C@H](O)[C@@H](O)[C@@H](O[C@H]8[C@H](O)[C@@H](O)[C@@H](O[C@H]1[C@H](O)[C@H]2O)O[C@@H]8CO)O[C@@H]7CO)O[C@@H]6CO)O[C@@H]5CO)O[C@@H]4CO)O[C@@H]3CO [BETADEX] | Not Active | Not Active | Not Active | Not Active | Not Active | Not Active | – | – | – | –
c1ccc(Cn2ccnc2)cc1 | Not Active | Not Active | Not Active | Not Active | Not Active | Not Active | – | – | – | –
CCCCCCNC(=O)n1cc(F)c(=O)[nH]c1=O [CARMOFUR] | Not Active | Not Active | Not Active | Not Active | Not Active | Not Active | – | – | – | –
OC[C@H]1O[C@@H]2O[C@H]3[C@H](O)[C@@H](O)[C@@H](O[C@H]4[C@H](O)[C@@H](O)[C@@H](O[C@H]5[C@H](O)[C@@H](O)[C@@H](O[C@H]6[C@H](O)[C@@H](O)[C@@H](O[C@H]7[C@H](O)[C@@H](O)[C@@H](O[C@H]1[C@H](O)[C@H]2O)O[C@@H]7CO)O[C@@H]6CO)O[C@@H]5CO)O[C@@H]4CO)O[C@@H]3CO [ALFADEX] | Not Active | Not Active | Not Active | Not Active | Not Active | Not Active | – | – | – | –
CC(C)NCC(O)COc1ccc(CC(N)=O)cc1 (configuration not stated) [ATENOLOL] | Not Active | Not Active | Not Active | Not Active | Not Active | Not Active | – | – | – | –
